This is an account of results in US20260138976A1 (Hoffmann-La Roche Inc., priority 2022, published 2026).

Assay [1] relates to primary human T-cells. Description: IL2 secretion measurements (24 h, CD3-stimulated T-cells, PBS counter screen). It counts as cell-based. Conditions: for Emax IL2 (% activation): CD3 condition, normalised to DMSO (neutral) and 20 μM reference compound A1 = 100%; for pEC50: Homo sapiens, T-cell, CD3-stimulated primary human T-cells, IL2 secretion, fitted sigmoidal curve, read-out: Tcell IL2 CD3 EC50. A digest of the protocol: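 IL-2 secretion was measured by ProQuantum or ELISA after 24 h culture of expanded human T-cells with compound, on CD3-antibody-coated plates or PBS counter-screen plates. Dosing used 5–6 points from a 20 or 10 μM final top at 3.333-fold steps in 0.2% DMSO. EC50/Emax were scaled between DMSO and 20 μM reference A1.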
A general note: Counterscreens check selectivity or assay interference.

The subject of assay [2] is primary human T-cells. Description: Proliferation assay (5 days, CellTiter-Glo, CD3-stimulated T-cells). To be noted: for Emax proliferation (% activation): CD3 condition, normalised to DMSO (neutral) and 20 μM reference compound A1 = 100%; for pEC50: Homo sapiens, T-cell, 120 h, CD3-stimulated primary human T-cells, 5 days, CellTiter-Glo, fitted sigmoidal curve, read-out: Tcell Proliferation CD3 EC50. Format: cell-based. In outline: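 Proliferation read-out: ATP luminescence (CellTiter-Glo 2.0) at day 5 in expanded primary human T-cells on CD3 antibody-coated plates, with PBS-only plates as a counter screen. Compounds in 5–6 pt series (factor 3.333, top 20 or 10 μM final). Values are normalized to DMSO (neutral) and 20 μM reference A1 (100%), from sigmoidal fits.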

Each structure is given as a SMILES string. pEC50: −log10 of the molar value. A value given as a limit tells only on which side of the number the result lay.

Turning to `N[C@H]1CS(=O)(=O)c2ccc(-c3nnc(C4(N)CCCCC4)o3)cc2N(Cc2ccc(-c3ccc(C(F)(F)F)cc3)cc2)C1=O` [Example 42, (3R)-3-amino-7-[5-(1-aminocyclohexyl)-1,3,4-oxadiazol-2-yl]-1,1-dioxo-5-[[4-[4-(trifluoromethyl)phenyl]phenyl]methyl]-2,3-dihydro-1λ^6,5-benzothiazepin-4-one], in the assay with primary human T-cells [1], the “Emax IL2 (% activation)” value came to 128 % activation and the pEC50 is 5.86. For the same compound, in the assay with primary human T-cells [2], the “Emax proliferation (% activation)” value was determined as 66 % activation and the pEC50 is 6.91.
Taken in the same sequence, the figures for `COc1ccc(-c2ccc(CN3C(=O)[C@@H](N)CS(=O)(=O)c4cc(F)c(-c5noc(C6(N)COC6)n5)cc43)cc2)cc1` [Example 8, (3R)-3-amino-7-[5-(3-aminooxetan-3-yl)-1,2,4-oxadiazol-3-yl]-8-fluoro-5-[[4-(4-methoxyphenyl)phenyl]methyl]-1,1-dioxo-2,3-dihydro-1λ^6,5-benzothiazepin-4-one] were 96 % activation, 5.25, 143 % activation and 5.51.
On to `CC(C)(C#N)c1nnc(-c2ccc3c(c2)N(Cc2ccc(-c4ccnc(C(F)(F)F)c4)cc2)C(=O)[C@@H](N)CS3(=O)=O)o1` [Example 111, 2-[5-[(3R)-3-amino-1,1,4-trioxo-5-[[4-[2-(trifluoromethyl)-4-pyridyl]phenyl]methyl]-2,3-dihydro-1λ^6,5-benzothiazepin-7-yl]-1,3,4-oxadiazol-2-yl]-2-methyl-propanenitrile], for which, in the assay on primary human T-cells [1], the “Emax IL2 (% activation)” value is 151 % activation and the pEC50 was 5.73. In the assay with primary human T-cells [2], the “Emax proliferation (% activation)” value stood at 117 % activation and the pEC50 is 6.03.
For the compound `CC(C)(C)c1nnc(-c2ccc3c(c2)N(Cc2ccc(-c4ncc(C(F)(F)F)o4)cc2)C(=O)[C@@H](N)CS3(=O)=O)o1` [Example 93, (3R)-3-amino-7-(5-tert-butyl-1,3,4-oxadiazol-2-yl)-1,1-dioxo-5-[[4-[5-(trifluoromethyl)oxazol-2-yl]phenyl]methyl]-2,3-dihydro-1λ^6,5-benzothiazepin-4-one], in the assay with primary human T-cells [1], the “Emax IL2 (% activation)” value is reported as 279 % activation and the pEC50 is 6.69. Moreover, in the assay on primary human T-cells [2], the “Emax proliferation (% activation)” value is reported as 104 % activation and the pEC50 was 6.92.
Turning to `CC(C)(C#N)c1nnc(-c2ccc3c(c2)N(Cc2ccc(-c4ccc(OC(F)(F)F)cc4)nc2)C(=O)[C@@H](N)CS3(=O)=O)o1` [Example 119, 2-[5-[(3R)-3-amino-1,1,4-trioxo-5-[[6-[4-(trifluoromethoxy)phenyl]-3-pyridyl]methyl]-2,3-dihydro-1λ^6,5-benzothiazepin-7-yl]-1,3,4-oxadiazol-2-yl]-2-methyl-propanenitrile], in the assay on primary human T-cells [1], the “Emax IL2 (% activation)” value is given as 102 % activation and the pEC50 is 5.89. In the assay on primary human T-cells [2], the “Emax proliferation (% activation)” value worked out at 119 % activation and the pEC50 is 6.09.
Consider `N[C@H]1CS(=O)(=O)c2ccc(-c3nnc(N4CCC(F)(F)CC4)o3)cc2N(Cc2ccc(-c3ccc(C(F)(F)F)cn3)cc2)C1=O` [Example 160], for which, in the assay with primary human T-cells [1], the “Emax IL2 (% activation)” value is recorded as 55 % activation and the pEC50 was 5.19. For the same compound, in the assay on primary human T-cells [2], the “Emax proliferation (% activation)” value is on record as 150 % activation and the pEC50 is 5.88.
For the compound `N[C@H]1CS(=O)(=O)c2ccc(-c3nnc(N4CCOC(F)(F)C4)o3)cc2N(Cc2ccc(-c3nnc(C(F)(F)F)o3)cc2)C1=O` [Example 80], in the assay on primary human T-cells [1], the “Emax IL2 (% activation)” value is listed as 360 % activation and the pEC50 is 5.45. For the same compound, in the assay with primary human T-cells [2], the “Emax proliferation (% activation)” value is recorded as 130 % activation and the pEC50 was 6.40.
Taken in the same sequence, the figures for `CC(C)(C#N)c1nnc(-c2ccc3c(c2)N(Cc2ccc(-c4ccc(C5CC5)cn4)cc2)C(=O)[C@@H](N)CS3(=O)=O)o1` [Example 118, 2-[5-[(3R)-3-amino-5-[[4-(5-cyclopropyl-2-pyridyl)phenyl]methyl]-1,1,4-trioxo-2,3-dihydro-1λ^6,5-benzothiazepin-7-yl]-1,3,4-oxadiazol-2-yl]-2-methyl-propanenitrile] were 172 % activation, 5.39, 144 % activation and 5.80.
As for `CC(C)(C)c1nnc(-c2ccc3c(c2)N(Cc2ccc(-n4nnc(C(F)(F)F)n4)cc2)C(=O)[C@@H](N)CS3(=O)=O)o1` [Example 90, (3R)-3-amino-7-(5-tert-butyl-1,3,4-oxadiazol-2-yl)-1,1-dioxo-5-[[4-[5-(trifluoromethyl)tetrazol-2-yl]phenyl]methyl]-2,3-dihydro-1λ^6,5-benzothiazepin-4-one], in the assay on primary human T-cells [1], the “Emax IL2 (% activation)” value was 159 % activation and the pEC50 was 6.00. Further, in the assay on primary human T-cells [2], the “Emax proliferation (% activation)” value was 152 % activation and the pEC50 is 6.46.
`CC(N)(c1nnc(-c2ccc3c(c2)N(Cc2ccc(-c4noc(C(F)(F)F)n4)cc2)C(=O)[C@@H](N)CS3(=O)=O)o1)C(F)(F)F` (stereo partly drawn) [Example 32, (3R)-3-amino-7-[5-(1-amino-2,2,2-trifluoro-1-methyl-ethyl)-1,3,4-oxadiazol-2-yl]-1,1-dioxo-5-[[4-[5-(trifluoromethyl)-1,2,4-oxadiazol-3-yl]phenyl]methyl]-2,3-dihydro-1λ^6,5-benzothiazepin-4-one]: in the assay with primary human T-cells [1], the “Emax IL2 (% activation)” value amounted to 321 % activation and the pEC50 was 5.72. In the assay on primary human T-cells [2], the “Emax proliferation (% activation)” value is on record as 153 % activation and the pEC50 is 6.33.
For the compound `CC(C)(C#N)c1nnc(-c2ccc3c(c2)N(Cc2ccc(-c4ccc(OC(F)(F)C(F)(F)F)cn4)cc2)C(=O)[C@@H](N)CS3(=O)=O)o1` [Example 129, 2-[5-[(3R)-3-amino-1,1,4-trioxo-5-[[4-[5-(1,1,2,2,2-pentafluoroethoxy)-2-pyridyl]phenyl]methyl]-2,3-dihydro-1λ^6,5-benzothiazepin-7-yl]-1,3,4-oxadiazol-2-yl]-2-methyl-propanenitrile], in the assay on primary human T-cells [1], the “Emax IL2 (% activation)” value is 187 % activation and the pEC50 is 6.26. Besides, in the assay with primary human T-cells [2], the “Emax proliferation (% activation)” value was 119 % activation and the pEC50 is 7.64.
On to `CC(C)(C#N)c1nnc(-c2ccc3c(c2)N(Cc2ccc(-c4ccc(OC(F)F)cn4)cc2)C(=O)[C@@H](N)CS3(=O)=O)o1` [Example 108, 2-[5-[(3R)-3-amino-5-[[4-[5-(difluoromethoxy)-2-pyridyl]phenyl]methyl]-1,1,4-trioxo-2,3-dihydro-1λ^6,5-benzothiazepin-7-yl]-1,3,4-oxadiazol-2-yl]-2-methyl-propanenitrile], for which, in the assay on primary human T-cells [1], the “Emax IL2 (% activation)” value is reported as 245 % activation and the pEC50 is 5.81. In addition, in the assay on primary human T-cells [2], the “Emax proliferation (% activation)” value was found to be 204 % activation and the pEC50 was 6.09.
With `CC(C)(C#N)c1nnc(-c2ccc3c(c2)N(Cc2ccc(-c4noc(C5CCC(F)(F)CC5)n4)cc2)C(=O)[C@@H](N)CS3(=O)=O)o1` [Example 101, 2-[5-[(3R)-3-amino-5-[[4-[5-(4,4-difluorocyclohexyl)-1,2,4-oxadiazol-3-yl]phenyl]methyl]-1,1,4-trioxo-2,3-dihydro-1λ^6,5-benzothiazepin-7-yl]-1,3,4-oxadiazol-2-yl]-2-methyl-propanenitrile], in the assay on primary human T-cells [1], the “Emax IL2 (% activation)” value was 429 % activation and the pEC50 was 5.44. Moreover, in the assay with primary human T-cells [2], the “Emax proliferation (% activation)” value turned out to be 175 % activation and the pEC50 was 6.26.
As to `CC(C)(C)C(N)c1nnc(-c2ccc3c(c2)N(Cc2ccc(-c4noc(C(F)(F)F)n4)cc2)C(=O)[C@@H](N)CS3(=O)=O)o1` (stereo partly drawn) [Example 34, (3R)-3-amino-7-[5-(1-amino-2,2-dimethyl-propyl)-1,3,4-oxadiazol-2-yl]-1,1-dioxo-5-[[4-[5-(trifluoromethyl)-1,2,4-oxadiazol-3-yl]phenyl]methyl]-2,3-dihydro-1λ^6,5-benzothiazepin-4-one], in the assay on primary human T-cells [1], the “Emax IL2 (% activation)” value was 69 % activation and the pEC50 is 5.31. In addition, in the assay on primary human T-cells [2], the “Emax proliferation (% activation)” value turned out to be 67 % activation and the pEC50 was 5.93.
Consider `NC(c1nnc(-c2ccc3c(c2)N(Cc2ccc(-c4noc(C(F)(F)F)n4)cc2)C(=O)[C@@H](N)CS3(=O)=O)o1)C(F)(F)F` (stereo partly shown) [Example 94], for which, in the assay with primary human T-cells [1], the “Emax IL2 (% activation)” value was determined as 76 % activation and the pEC50 is 5.57. Also, in the assay on primary human T-cells [2], the “Emax proliferation (% activation)” value came out at 42 % activation and the pEC50 is under 5.00.
On to `COC(=O)N1CC2CC(c3nnc(-c4ccc5c(c4)N(Cc4ccc(-c6ccc(C(F)(F)F)cc6)nc4)C(=O)[C@@H](N)CS5(=O)=O)o3)(C2)C1` [Example 58, methyl 1-[5-[(3R)-3-amino-1,1,4-trioxo-5-[[6-[4-(trifluoromethyl)phenyl]-3-pyridyl]methyl]-2,3-dihydro-1λ^6,5-benzothiazepin-7-yl]-1,3,4-oxadiazol-2-yl]-3-azabicyclo[3.1.1]heptane-3-carboxylate], for which, in the assay on primary human T-cells [1], the “Emax IL2 (% activation)” value is listed as 505 % activation and the pEC50 is 5.33. Moreover, in the assay on primary human T-cells [2], the “Emax proliferation (% activation)” value worked out at 114 % activation and the pEC50 was 6.27.
